By half-life is commonly meant how long it takes for the measured level to halve. The Ki is a dissociation constant, usually derived from enzyme kinetics or from competition with a known ligand.

SMILES strings stand for the structures. Where “and” joins values, the source holds several entries; their conditions need not be identical. Identical values can stand only once.

We go through two molecules from patent US12569472B2, “PPARγ agonists for treatment of kidney disease” (The Research Institute at Nationwide Children's Hospital, priority 2020, dated 2026).

For series [1], the system named is PAN-induced nephropathy in male Wistar rats. Description: PAN-induced nephropathy rat model: proteinuria (urine protein:creatinine ratio). Type of series: in vivo. Particulars: Day 11, Pio 10 mg/kg or GQ-16 40 mg/kg daily oral gavage; for Urinary protein/creatinine ratio (UPCr): PAN 50 mg/kg IV. The method, then: (§1) This study was approved by the Institution Animal Care and Use Committee at Nationwide Children's Hospital, and their guidelines were followed when performing the experiments. Male Wistar rats were intravenously (IV) injected with puromycin aminonucleoside (PAN) (Sigma-Aldrich, St. Louis, Mo.) (50 mg/kg) on Day 0, which induced proteinuria, while control rats were given IV injections of saline. The rats were treated by oral gavage with Pioglitazone (Alfa Aesar, Tewksbury, Mass.) (10 mg/kg), GQ-16 (40 mg/kg), or a sham vehicle daily. GQ-16 and Pio dosages were determined based on previous studies, and GQ-16 was synthesized as previously described. Amato et al., The Journal of biological chemistry, 287: 28169-28179 (2012). Spot urine and serum were collected, and body weights were recorded throughout the study. […] Kerlin et al., Journal of the American Society of Nephrology: JASN, 26: 3009-3019 (2015). Kidneys were harvested, and the glomeruli were isolated using the sequential sieving method. Agrawal et al., Sci Rep, 6: 24392 (2016). Liver and white adipose tissue (WAT) epididymal fat were collected and flash frozen in liquid nitrogen.
Urine was collected from rats daily throughout the study and resolved using sodium dodecyl sulfate-polyacrylamide gel electrophoresis (SDS-PAGE) on an 8% gel and stained with Coomassie Brilliant Blue G-250 (Alfa Aesar, Tewksbury, MA) to visualize the albumin bands. Urine protein:creatinine ratio (UPCr) analyses were performed on urine samples from Day 11 at the time of peak proteinuria by Antech Diagnostics GLP (Morrisville, N.C.) to quantify the proteinuria values.

Series [2] has the same test system. Description: Serum chemistry (albumin, cholesterol) in PAN-nephrotic rats. It is filed as in vivo, rat. As to conditions: for mean reduction of PAN-induced hypercholesterolemia / serum total cholesterol: Day 11; for serum albumin: Day 11, Pio 10 mg/kg or GQ-16 40 mg/kg daily. The method, then: as §1
Serum albumin and cholesterol were measured using the ACE® albumin and cholesterol reagents (Alfa Wasserman Diagnostic Technologies, LLC, West Caldwell, NJ) on the Vet Axcel (Alfa Wasserman Diagnostic Technologies, LLC, West Caldwell, NJ) at the Clinical Pathology Services, The Ohio State University's College of Veterinary Medicine, according to the manufacturer's instructions.

Series [3] relates to thrombin generation. The experiment in a line: Thrombin generation assay (TGA) on platelet poor plasma of rats. Particulars: PAN rats, plasma Day 11; for ETP (endogenous thrombin potential): Pio 10 mg/kg or GQ-16 40 mg/kg daily. Type of series: in vivo, rat. The method, then: as §1
Thrombin generation assays (TGA) were performed using the Technothrombin® TGA Kit (Technoclone, Vienna, Austria) and Reagent C (RC) Low on PPP samples collected from the rats to determine various parameters such as the endogenous thrombin potential (ETP) and peak thrombin concentration. These assays were performed at least in duplicate on various rat groups (n=4-7/group). Briefly, PPP at 1:1 ratio with buffer was added to black well plates, and RC Low added. Then TGA substrate was added just before reading on a Spectramax M2 Fluorescent Plate Reader (Molecular Devices, San Jose, CA).

Series [4] deals with white adipose tissue gene expression (Ap2, Adipoq, Adipsin, Cd36, Pgc1a, Pparg). Description: White adipose tissue (epididymal fat) gene expression by qRT-PCR. Type of series: in vivo, rat. Particulars: PAN rats. The method, then:
as §1
(§2) Total RNA was extracted from isolated WAT epididymal fat and liver tissue samples using the RNeasy kit (Qiagen, Germantown, MD), following the manufacturer's instructions. Tissue samples in lysis buffer were placed in lock tubes with stainless-steel disruption beads and lysed at 30.0 Hz for 4 minutes using the Qiagen TissueLyser (Germantown, MD), followed by RNA isolation from the resulting lysate. Total RNA was isolated from glomeruli tissue samples using the mirVana™ Isolation Kit (Invitrogen, Carlsbad, CA), according to the manufacturer's instructions. Yield and purity were calculated for all isolated RNA samples by measuring the absorbance at 260, 280, and 230 nm and the ratios (both) with a spectrophotometer. 500 ng-1 μg of RNA was subjected to DNase (Invitrogen, Carlsbad, CA) digestion at room temperature for 15 minutes, which was then inactivated with 25 mM EDTA at 65° C. for 10 min. RNA was reverse transcribed using the iScript cDNA Synthesis Kit (Bio-Rad, Hercules, CA) according to the manufacturer's instructions. cDNA was used for quantitative reverse transcription-polymerase chain reaction (qRT-PCR) using gene specific and house-keeping primers. SYBR green (Bio-Rad, Hercules, Calif.) qRT-PCR was performed on the Applied Biosystems 7500 Real-Time PCR System. The PCR conditions were 95° C. for 10 minutes, 40× (95° C. for 15 seconds, 60° C. for 1 minute), followed by a melt curve to ensure specific products. The annealing temperature was at 60° C. for all genes except Pgc1a, Pparg, and Cd36 for which 52° C. annealing temperature was used. The melt curve conditions were 95° C. for 15 seconds, 60° C. for 1 minute, 30 seconds incremental increase to 95° C. and 60° C. for 15 seconds. The ΔΔCt method was used to analyze the results, including normalization to housekeeping genes (Rpl6 44 for glomeruli, Ppia 45, 46 for fat and liver). Pfaffl, M W, Nucleic acids research, 29: e45, 2001. Due to melt curve variation for Trpc6, amplified samples were also resolved on a 2% agarose gel, and densitometry was performed using ImageJ (National Institutes of Health, Bethesda, MD) software. Each gene was tested in triplicates for each tissue on at least three different rats per group.
For orientation: In qPCR the cycle at which signal appears reflects the starting amount.

Series [5] can be described thus: Body weight in PAN-nephrotic rats. It is filed as in vivo, rat. The method, then:
as §1

The subject of series [6] is thrombin generation. As to conditions: previous study; cited from earlier work.
The conditions of series [7]: in vivo; cited from earlier work.
Series [8] concerns glomerular gene expression (Nphs1, Nrf2, Trpc6, Pparg). The experiment in a line: Glomerular gene expression by qRT-PCR. It is filed as in vivo, rat. Particulars: PAN rats. The method, then:
as §1
as §2, with “The melt curve conditions were 95° C. for 15 seconds, 60° C. for 1 minute, 30 seconds incremental increase to 95° C. and 60° C. for 15 seconds. The ΔΔCt method was used to analyze the results, including normalization to housekeeping genes (Rpl6 44 for glomeruli, Ppia 45, 46 for fat and liver). Pfaffl, M W, Nucleic acids research, 29: e45, 2001. Due to melt curve variation for Trpc6, amplified samples were also resolved on a 2% agarose gel, and densitometry was performed using ImageJ (National Institutes of Health, Bethesda, MD) software. Each gene was tested in triplicates for each tissue on at least three different rats per group.” left out

In series [9] the test system is hepatic gene expression (Pcsk9, Abca1, F2, SerpinC1). Description: Hepatic gene expression by qRT-PCR. It is filed as in vivo, rat. The method, then: as §1
as §2, with “The melt curve conditions were 95° C. for 15 seconds, 60° C. for 1 minute, 30 seconds incremental increase to 95° C. and 60° C. for 15 seconds. The ΔΔCt method was used to analyze the results, including normalization to housekeeping genes (Rpl6 44 for glomeruli, Ppia 45, 46 for fat and liver). Pfaffl, M W, Nucleic acids research, 29: e45, 2001. Due to melt curve variation for Trpc6, amplified samples were also resolved on a 2% agarose gel, and densitometry was performed using ImageJ (National Institutes of Health, Bethesda, MD) software. Each gene was tested in triplicates for each tissue on at least three different rats per group.” left out

A further series has as its target T1, P-PPARγ (Ser273) (Rattus norvegicus, UniProt O88275).
T1 construct: To isolate protein from the glomeruli, liver, and fat tissues, the samples were lysed; from tissue; host or cells: glomeruli isolated from kidneys of male Wistar rats
T1 sequence (O88275 1-505): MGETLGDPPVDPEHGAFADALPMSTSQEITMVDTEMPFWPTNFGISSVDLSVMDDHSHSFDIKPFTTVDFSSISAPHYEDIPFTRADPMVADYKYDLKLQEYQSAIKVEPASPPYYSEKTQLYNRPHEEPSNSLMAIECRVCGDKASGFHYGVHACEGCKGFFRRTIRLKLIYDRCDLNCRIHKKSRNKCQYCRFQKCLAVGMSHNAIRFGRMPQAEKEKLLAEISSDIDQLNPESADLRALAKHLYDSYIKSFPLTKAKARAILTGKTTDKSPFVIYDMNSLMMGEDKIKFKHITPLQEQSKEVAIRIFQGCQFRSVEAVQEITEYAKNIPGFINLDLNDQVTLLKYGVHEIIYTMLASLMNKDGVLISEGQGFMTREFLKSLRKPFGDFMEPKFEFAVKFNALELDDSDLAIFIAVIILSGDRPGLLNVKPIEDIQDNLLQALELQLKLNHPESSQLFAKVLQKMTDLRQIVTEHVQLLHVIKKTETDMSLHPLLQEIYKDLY
Description: Western blot of glomerular P-PPARγ (Ser273) / total PPARγ. Type of series: in vivo. As to conditions: PAN-nephrotic rats. Background: In western blotting, separated proteins are transferred to a membrane and probed.

The target in another series is T2, PPARγ (Homo sapiens, UniProt P37231).
T2 sequence (P37231 1-505): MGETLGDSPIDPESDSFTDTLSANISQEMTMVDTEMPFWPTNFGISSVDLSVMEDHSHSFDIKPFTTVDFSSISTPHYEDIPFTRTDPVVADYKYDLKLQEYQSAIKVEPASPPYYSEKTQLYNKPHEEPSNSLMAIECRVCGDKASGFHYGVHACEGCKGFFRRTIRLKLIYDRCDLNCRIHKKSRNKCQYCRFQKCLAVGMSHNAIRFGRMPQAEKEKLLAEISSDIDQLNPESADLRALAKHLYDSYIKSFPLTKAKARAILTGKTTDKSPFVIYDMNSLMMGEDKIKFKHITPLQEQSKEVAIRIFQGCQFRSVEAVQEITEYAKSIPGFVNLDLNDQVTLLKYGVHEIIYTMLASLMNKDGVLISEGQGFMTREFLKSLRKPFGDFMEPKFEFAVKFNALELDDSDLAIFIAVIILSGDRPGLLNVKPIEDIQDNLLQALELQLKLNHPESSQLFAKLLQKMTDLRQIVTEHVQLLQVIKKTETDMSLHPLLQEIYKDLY
Particulars: cited from earlier work.

Series [10] deals with T3, PPARγ phosphorylation at Ser273 (Homo sapiens, UniProt P37231).
T3 sequence (P37231 1-505): T2 sequence (P37231 1-505)
Particulars: in vitro assay; cited from earlier work.

The test system of the next series is diabetic mice. As to conditions: in the absence of weight gain and edema; cited from earlier work.

Description for P-PPARγ (Ser273): Male Wistar rats were intravenously (IV) injected with puromycin aminonucleoside (PAN) (Sigma-Aldrich, St. Louis, Mo.) (50 mg/kg) on Day 0, which induced proteinuria, while control rats were given IV injections of saline. The rats were treated by oral gavage with Pioglitazone (Alfa Aesar, Tewksbury, Mass.) (10 mg/kg), GQ-16 (40 mg/kg), or a sham vehicle daily. […] Spot urine and serum were collected, and body weights were recorded throughout the study. […] Kidneys were harvested, and the glomeruli were isolated using the sequential sieving method.
To isolate protein from the glomeruli, liver, and fat tissues, the samples were lysed in a lock tube with RIPA buffer (1M Tris HCl, 0.5M EDTA, 5M NaCl, 10% SDS) containing protease inhibitor cocktail (Thermo Scientific, Waltham, MA) and phosphatase inhibitor cocktail (Alfa Aesar, Tewksbury, MA) and a stainless-steel disruption bead using a Qiagen TissueLyser (Germantown, Md.). Following lysis/homogenization at 30.0 Hz for 4 minutes (liver and fat) or 1 minute (glomeruli), samples were centrifuged for 10 minutes at 4° C. at 12,000 rpm. The supernatant was collected, and the proteins were resolved by SDS-PAGE and transferred to an Immobilon-P polyvinylidene difluoride (PVDF) Transfer Membrane (Millipore Sigma, St. Louis, MO). […] Protein bands were detected by chemiluminescence using the Chemidoc MP Imaging System (Bio-Rad, Hercules, CA). […]

As to `CCc1ccc(CCOc2ccc(CC3SC(=O)NC3=O)cc2)nc1` (stereo not shown) [Pio, pioglitazone, reference compound], in series [1], the “Urinary protein/creatinine ratio (UPCr)” value came out at 13.17 ± 5.51 mg/mg and the “mean reduction in PAN-induced proteinuria” value is given as 64%. Further, in series [2], the “mean reduction of PAN-induced hypercholesterolemia” value stood at 80%, the serum total cholesterol was determined as 97.86 ± 12.37 mg/dL and the serum albumin came out at 2.34 ± 0.14 g/dL. Besides, in the series on thrombin generation [3], the “Lag Phase” value worked out at 7.714 ± 0.6974 min, the “Peak Thrombin” value was found to be 180.8 ± 29.50 nM, the “Velocity Index” value is reported as 34.67 ± 8.448 nM/min and the “ETP (endogenous thrombin potential)” value is 3509 ± 427.8 nM·min. In series [4], the “WAT Ap2 (Fabp4) expression” value is reported as ~3.4 fold. Besides, in [5], the “body weight (weight reduction of nephrotic rats)” value is given as “did not show any significant difference from control rats”. The “ETP in healthy control rats” value in the series with thrombin generation [6] is recorded as “significantly increased”. In addition, in series [7], the half-life was 8 to 9 h and the “time of peak (systemic)” value was 1.5 to 2 h.
With `COc1ccc(Br)cc1/C=C1\SC(=O)N(Cc2ccc(C)cc2)C1=O` [GQ-16, 5-(5-bromo-2-methoxy-benzylidine)-3-(4-methyl-benzyl)-thiazolidine-2,4-dione], in [1], the “Urinary protein/creatinine ratio (UPCr)” value came out at 8.01 ± 3.54 mg/mg; the “mean reduction in PAN-induced proteinuria” value was 84% and 81%. In addition, in [2], the “mean reduction of PAN-induced hypercholesterolemia” value amounted to 86%, the serum total cholesterol amounted to 93.14 ± 13.36 mg/dL and the serum albumin was determined as 2.64 ± 0.15 g/dL. Also, in the series with thrombin generation [3], the “Lag Phase” value is on record as 9.250 ± 1.532 min, the “Peak Thrombin” value is on record as 134.0 ± 35.54 nM, the “Velocity Index” value is 19.91 ± 6.643 nM/min and the “ETP (endogenous thrombin potential)” value was found to be 2544 ± 489.0 nM·min. Also, in series [8] (vs PAN), the “glomerular Nphs1 expression” value is given as “significantly restored” and the “glomerular Nrf2 expression” value was “marked restoration”. For the same molecule, the “glomerular Pparg expression” value in [8] (not significant (p=0.06)) is “somewhat increased”. Also, in [8] (trend only), the “glomerular Trpc6 expression” value was “reduction”. Also, the “hepatic Pcsk9 expression” value in series [9] (PAN rats (PAN ~30 fold up)) is on record as “restored to control levels”. In addition, in series [9] (PAN rats, tendency, p=0.07), the “hepatic F2 expression” value is listed as “reduced” and the “hepatic SerpinC1 expression” value is “reduced”. Further, the “hepatic Abca1 expression” value in series [9] (PAN rats, trend, p=0.057) is given as ~23 fold. Moreover, in series [4], the “WAT Adipoq expression” value is listed as “induced more robustly”, the “WAT Adipsin (Cfd) expression” value was “induced more robustly”, the “WAT Ap2 (Fabp4) expression” value was ~2.2 fold and the “WAT Cd36 expression” value is “no significant differences”. In addition, in series [4], the “WAT Pgc1a expression” value is given as “trend in increase”; the “WAT Pparg expression” value was “induced”; the “WAT Δ exon 5 splice variant of Pparg, normalized to total Pparg” value is “further reduced”. Besides, the “phosphorylation status of PPARγ at Ser273 (glomeruli)” value on P-PPARγ (Ser273) is “unaltered”. Further, in [5], the “body weight (weight reduction of nephrotic rats)” value was “maintained”. Further, the inhibition constant (Ki) at PPARγ was 0.16 µM. The “receptor phosphorylation at Ser273” value in [10] is reported as “block”. In addition, the insulin sensitivity entry in the series with diabetic mice was “improve”.
